Reference: PubChem BioAssay AID2765 (Broad Institute, 2010)
Activity calls are given as the source filed them.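 How the source made its calls: active means half-maximal concentration for the rise in caspase light signal at or below ten times the top tested dose; inconclusive means flat fit between 30% and 70% activity, or unreliable curve fit; inactive means the rest.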

Tested on: MEF A1-2A-BIM cells, caspase 3/7 luminescence, 3 h
Assay: inducers of caspase signal in A1-dependent MEFs – cell-based, luminescence, retest, A1 inhibitor project, dose response (AID 2765)

Compound	EC50
Cc1ccn(C(=O)c2ccc(NC(=O)C3CCCCC3)cc2)n1	> 35 µM (inactive)
CC(C)(C)OC(=O)n1cc(CCO)c2ccccc21	> 35 µM (inactive)
O=C1c2ccsc2SCCN1Cc1cccc(F)c1	> 35 µM (inactive)
COc1ccccc1N1CCN(S(=O)(=O)CCNC(=O)c2cc(OC)c(OC)c(OC)c2)CC1	> 35 µM (inactive)
Cc1cc(N2C(=O)C=CC2=O)c([N+](=O)[O-])cc1C	> 35 µM (inactive)
Cc1ccc(S(=O)(=O)N2CCCC2)cc1C(=O)NCc1ccccc1CN1CCCC1	> 35 µM (inactive)
CC(C)CN(C(=O)C1CSC2(C)CCC(=O)N12)c1c(N)n(Cc2ccccc2)c(=O)[nH]c1=O (stereo not drawn)	> 35 µM (inactive)
COc1ccc(N2CC(C(=O)N[C@H](C(=O)NC(C)c3ccccc3)C(C)C)CC2=O)cc1 (stereo partly drawn)	> 35 µM (inactive)
Cc1c(Cl)cccc1NC(=O)CN1CCN(CCN=CC2=C(O)CC(c3ccccc3)CC2=O)CC1 (stereo not drawn)	> 35 µM (inactive)
CCOC(=O)/C(=C\c1cccnc1)C(=O)c1cc(C(C)=O)c(Nc2ccccc2)s1	> 35 µM (inactive)
CCCc1cc(=O)oc2cc(C)cc(OCC(=O)Nc3ccc(S(N)(=O)=O)cc3)c12	> 35 µM (inactive)
COc1ccc(OC)c(S(=O)(=O)NC(C)c2ccc(-n3ccnc3)cc2)c1 (stereo not drawn)	> 35 µM (inactive)
Cc1ccc(N=C2C(=O)Nc3ccc(C)c(Br)c32)cc1	> 35 µM (inactive)
CCOC(=O)C(NC(=O)c1ccc(OC)cc1)(N1CCCC1=O)C(F)(F)F (stereo not drawn)	> 35 µM (inactive)
O=C(/C=C/N1CCN(Cc2ccccc2)CC1)C(F)(F)F	> 35 µM (inactive)
COc1ccc(-c2ccc(NS(=O)(=O)c3cc([N+](=O)[O-])c(C)c([N+](=O)[O-])c3)cc2)nn1	> 35 µM (inactive)
Brc1ccc(CN2CCN(Cc3c[nH]c4ccccc34)CC2)cc1	> 35 µM (inactive)
CCOc1ccccc1OCCC(=O)N1CCN(S(=O)(=O)c2ccccc2[N+](=O)[O-])CC1	> 35 µM (inactive)
Cc1cc(C)c(S(=O)(=O)N2CCCCCC2)cc1Br	> 35 µM (inactive)
CCCCC1CCC(C(=O)N(CC(C)C)c2c(N)n(Cc3ccccc3)c(=O)[nH]c2=O)CC1 (stereo not drawn)	5.65 µM
CCOC(=O)CSCC(=O)N1N=C(c2cccs2)CC1c1ccc(F)cc1 (stereo not drawn)	> 35 µM (inactive)
Cc1ccccc1Nc1nc(-c2sc(NC(=O)c3cccc(Cl)c3)nc2C)cs1	> 35 µM (inactive)
O=C(NCCc1ccccc1)C1CCCN1C(=O)Nc1ccc(F)cc1 (stereo not drawn)	> 35 µM (inactive)

Compound	EC50
COc1ccccc1NC(=O)CC1COc2ccccc2O1 (stereo not drawn)	> 35 µM (inactive)
COc1c(Br)cc([N+](=O)[O-])c(OC)c1C(=O)NC(=O)Nc1nc(C)cc(C)n1	> 35 µM (inactive)
O=C(c1c[nH]c2ccccc12)C(Cl)c1ccccc1 (stereo not drawn)	> 35 µM (inactive)
COc1ccc(C(=O)Nc2cccc3c2CCCC3)cc1	> 35 µM (inactive)
COc1ccc(C)cc1S(=O)(=O)n1cnc2ccccc21	> 35 µM (inactive)
CC(C)Oc1ccc(C(=O)OCC(=O)NC2CCCCCC2)cc1	> 35 µM (inactive)
O=C(N/N=C\c1ccc(CN(Cc2ccc(Cl)cc2)S(=O)(=O)c2ccccc2)o1)C(=O)Nc1ccc(F)cc1	> 35 µM (inactive)
C=C1CCc2c([nH]c3ccc(OCC(C)C)cc23)C1=O	15.1 µM
CCCN1C(=O)/C(=N\OCC(=O)NC23CC4CC(CC(C4)C2)C3)c2ccccc21	> 35 µM (inactive)
Cc1c(CCCC(=O)O)sc(N)c1C(=O)c1cccc(C(F)(F)F)c1	> 35 µM (inactive)
O=C(NC[C@H]1CCCO1)c1cccc2c1C(=O)c1ccc(-c3ccc(F)cc3OCc3ccccc3)cc1S2(=O)=O	> 35 µM (inactive)
CC1CCc2nn(CC(=O)NCCCN3CCCC3=O)cc2C1 (stereo not drawn)	> 35 µM (inactive)
COC(=O)c1ccc(Cl)cc1NC(=O)/C=C/c1ccc(C)o1	> 35 µM (inactive)
CCOc1cc2c(cc1OCC)C(c1ccccc1)N(c1ccccc1)C(=O)C2 (stereo not drawn)	> 35 µM (inactive)
Cc1ccc(S(=O)(=O)n2cc(-c3ccccc3)c3ccccc32)cc1	> 35 µM (inactive)
CCOC(=O)c1ccc(-c2ccc(/C=N/NC(=O)CN(c3cccc(C)c3)S(C)(=O)=O)o2)cc1	24 µM
Cc1ncc([N+](=O)[O-])n1Cc1cccc2ccccc12	> 35 µM (inactive)
Cc1ccc(C)c(NC(=O)CN(C)C(=O)c2ccc(-c3cccc(C(F)(F)F)c3)o2)c1	> 35 µM (inactive)
Cn1c(O)c(C=NCCN2CCN(C(=O)Nc3ccccc3)CC2)c(=O)n(C)c1=O	> 35 µM (inactive)
Cc1cccc(C)c1NC(=O)c1cnccn1	> 35 µM (inactive)
O=C(COC(=O)c1ccc(CN2CCCC2=O)cc1)Nc1ccc(F)cc1	> 35 µM (inactive)
Cc1ccc(NC(=O)c2cccc(S(=O)(=O)NCc3ccccc3)c2)nc1	> 35 µM (inactive)
Cn1ccc(=NC=C(C#N)C#N)c2ccccc21	> 35 µM (inactive)

Compound	EC50
O=C(Nc1cc(Cl)ccc1N1CCOCC1)c1cccnc1	> 35 µM (inactive)
Cc1cc(=O)oc2c(C)c(OCC(=O)N3CCN(C(=O)C4COc5ccccc5O4)CC3)ccc12 (stereo not drawn)	> 35 µM (inactive)
Cc1cc(NC(=O)c2ccc3c(c2)C(=O)N(Cc2ccccc2)C3=O)no1	> 35 µM (inactive)
O=C(c1ccco1)N1CCN(C(=O)C2CCN(S(=O)(=O)c3cccs3)CC2)CC1	> 35 µM (inactive)
COC(=O)c1c(NC(=O)C2CC(C)=C(C)CC2C(=O)O)sc2c1CCCCC2 (stereo not drawn)	> 35 µM (inactive)
CCCc1cc(=O)oc2c(C)c(OCC(=O)Nc3ccc(CN4CCOCC4)cc3)ccc12	> 35 µM (inactive)
CSc1nnc(-c2cc3c(-c4ccccc4)nn(C)c3s2)n1C	> 35 µM (inactive)
O=C(Nc1ccc(N2CCN(C(=O)c3ccco3)CC2)cc1)c1cccs1	> 35 µM (inactive)
C=C(C(=O)Oc1ccccc1C(C)(C)C)c1ccccc1	15.9 µM
COc1ccc(OC)c(/C=C/C(=O)N(C)CC(=O)Nc2cc(C)ccc2C)c1	> 35 µM (inactive)
CCOc1ccc(NC(=S)NC(=O)/C=C/c2ccc(C)cc2)c([N+](=O)[O-])c1	31.5 µM
Cc1ccc(NC(=O)c2ccc(N/N=C/c3cccc(O)c3)c([N+](=O)[O-])c2)cc1	21.5 µM
Cn1c(SCc2ccccc2)nc(N)c(N=O)c1=O	> 35 µM (inactive)
O=C(Nc1ccccc1N1CCCC1)C1CCN(S(=O)(=O)c2ccc(F)cc2)CC1	> 35 µM (inactive)
Nc1nc(CSc2nc3ccccc3[nH]2)nc(N2CCOCC2)n1	> 35 µM (inactive)
Nc1ccccc1SC(C[N+](=O)[O-])c1ccccc1 (stereo not drawn)	> 35 µM (inactive)
COc1ccccc1-c1cn[nH]c1-c1ccc(OCc2ccccc2)cc1O	> 35 µM (inactive)
CCN(CC)c1ccc(C=NCCc2ccc(S(N)(=O)=O)cc2)cc1	> 35 µM (inactive)
c1ccc(Cc2nn3c(Cn4nnc5ccccc54)nnc3s2)cc1	> 35 µM (inactive)
O=[N+]([O-])/C=C/c1cn(Cc2ccc(Cl)cc2)c2ccccc12	21.6 µM
CC(=O)OC[C@]12CC[C@H]3[C@@](C)(CC[C@H]4C(C)(C)CCC[C@]34C)[C@@H]1C[C@H](C1=CC(=O)O[C@H]1OC(C)=O)O2	3.27 µM
Cn1nc(-c2ccc(OCC(=O)NCC3CCCO3)cc2)c2ccccc2c1=O (stereo not drawn)	> 35 µM (inactive)
